Assay results from the NIST ThermoML archive (doi:10.1016/j.jct.2010.12.021).
Numbers after ± are expanded uncertainties.

Assay: molar heat capacity at constant pressure
Settings: 101.33 kPa, Small sample (50 mg) DSC

CCCCCC[n+]1cccc2ccccc21.O=S(=O)([N-]S(=O)(=O)C(F)(F)F)C(F)(F)F [1-hexylquinolinium bis(trifluoromethylsulfonyl)amide]
Settings	molar heat capacity at constant pressure [J/K/mol]
283.12 K, Crystal	420.81 ± 42
283.72 K, Crystal	421.99 ± 43
284.32 K, Crystal	423.19 ± 43
284.92 K, Crystal	424.39 ± 43
285.52 K, Crystal	425.58 ± 43
286.12 K, Crystal	426.78 ± 43
286.72 K, Crystal	427.94 ± 43
287.32 K, Crystal	429.07 ± 43
287.92 K, Crystal	430.21 ± 43
288.52 K, Crystal	431.37 ± 44
289.12 K, Crystal	432.53 ± 44
289.72 K, Crystal	433.71 ± 44
290.32 K, Crystal	434.96 ± 44
290.92 K, Crystal	436.29 ± 44
291.52 K, Crystal	437.63 ± 44
292.12 K, Crystal	439.04 ± 44
292.72 K, Crystal	440.54 ± 44
293.32 K, Crystal	442.04 ± 45
293.92 K, Crystal	443.6 ± 45
294.52 K, Crystal	445.19 ± 45
295.12 K, Crystal	446.81 ± 45
295.72 K, Crystal	448.46 ± 45
296.32 K, Crystal	450.18 ± 45
296.92 K, Crystal	451.92 ± 46
297.52 K, Crystal	453.71 ± 46
298.12 K, Crystal	455.57 ± 46
298.72 K, Crystal	457.56 ± 46
299.32 K, Crystal	459.55 ± 46
299.92 K, Crystal	461.52 ± 47
300.52 K, Crystal	463.69 ± 47
301.12 K, Crystal	465.97 ± 47
301.72 K, Crystal	468.26 ± 47
302.32 K, Crystal	470.81 ± 48
302.92 K, Crystal	473.57 ± 48
303.52 K, Crystal	476.39 ± 48
304.12 K, Crystal	479.52 ± 48
304.73 K, Crystal	483.2 ± 49
305.33 K, Crystal	487.13 ± 49
305.93 K, Crystal	491.57 ± 50
306.53 K, Crystal	497.37 ± 50
307.13 K, Crystal	504.13 ± 51
307.72 K, Crystal	510.47 ± 52
308.32 K, Crystal	518.68 ± 52
308.92 K, Crystal	531.59 ± 54
309.52 K, Crystal	546.05 ± 55
310.12 K, Crystal	573.74 ± 59
310.72 K, Crystal	653.81 ± 69
311.32 K, Crystal	795.64 ± 83
311.92 K, Crystal	921.44 ± 100
312.51 K, Crystal	1266.8 ± 170
313.09 K, Crystal	2288.5 ± 300
313.66 K, Crystal	3477.3 ± 420
314.23 K, Crystal	4856 ± 550
314.8 K, Crystal	6301.5 ± 680
315.37 K, Crystal	7631.8 ± 810
315.94 K, Crystal	9002.3 ± 920
316.54 K, Crystal	9157.6 ± 930
317.17 K, Liquid	7971.7 ± 830
317.8 K, Liquid	6765.5 ± 720
318.43 K, Liquid	5315.4 ± 580
319.06 K, Liquid	3937.3 ± 450
319.69 K, Liquid	2716.7 ± 330
320.31 K, Liquid	1646.2 ± 210
320.92 K, Liquid	1124.2 ± 130
321.52 K, Liquid	783.96 ± 90
322.12 K, Liquid	605.73 ± 64
322.72 K, Liquid	578.47 ± 58
323.33 K, Liquid	579.09 ± 58
323.93 K, Liquid	579.53 ± 59
324.53 K, Liquid	579.5 ± 59
325.13 K, Liquid	579.81 ± 59
325.73 K, Liquid	580.31 ± 59
326.33 K, Liquid	580.35 ± 59
326.93 K, Liquid	580.48 ± 59
327.53 K, Liquid	580.91 ± 59
329.93 K, Liquid	582.05 ± 59
330.53 K, Liquid	582.3 ± 59
331.13 K, Liquid	582.61 ± 59
331.73 K, Liquid	582.85 ± 59
332.33 K, Liquid	583.14 ± 59
332.93 K, Liquid	583.5 ± 59
333.53 K, Liquid	583.82 ± 59
334.13 K, Liquid	584.2 ± 59
334.73 K, Liquid	584.61 ± 59
335.33 K, Liquid	585.06 ± 59
335.93 K, Liquid	585.62 ± 59
336.53 K, Liquid	586.11 ± 59
337.13 K, Liquid	586.52 ± 59
337.73 K, Liquid	586.92 ± 59
338.33 K, Liquid	587.33 ± 59
338.93 K, Liquid	587.69 ± 59
339.53 K, Liquid	587.94 ± 59
340.13 K, Liquid	588.08 ± 59
340.73 K, Liquid	588.35 ± 59
341.33 K, Liquid	588.62 ± 59
341.93 K, Liquid	588.83 ± 59
342.54 K, Liquid	589.03 ± 59
343.13 K, Liquid	589.23 ± 60
343.73 K, Liquid	589.47 ± 60
344.33 K, Liquid	589.68 ± 60
344.93 K, Liquid	589.8 ± 60
345.53 K, Liquid	589.91 ± 60
346.13 K, Liquid	590.01 ± 60
346.73 K, Liquid	590.17 ± 60
347.33 K, Liquid	590.33 ± 60
347.93 K, Liquid	590.52 ± 60
348.53 K, Liquid	590.79 ± 60
349.13 K, Liquid	591.11 ± 60
349.73 K, Liquid	591.46 ± 60
350.33 K, Liquid	591.81 ± 60
350.93 K, Liquid	592.11 ± 60
351.53 K, Liquid	592.4 ± 60
352.13 K, Liquid	592.64 ± 60
352.73 K, Liquid	592.89 ± 60
353.33 K, Liquid	593.12 ± 60
353.93 K, Liquid	593.32 ± 60
354.53 K, Liquid	593.58 ± 60
355.13 K, Liquid	593.86 ± 60
355.73 K, Liquid	594.11 ± 60
356.33 K, Liquid	594.37 ± 60
356.93 K, Liquid	594.62 ± 60
357.53 K, Liquid	594.9 ± 60
358.13 K, Liquid	595.2 ± 60
358.73 K, Liquid	595.42 ± 60
359.33 K, Liquid	595.58 ± 60
359.93 K, Liquid	595.78 ± 60
360.53 K, Liquid	595.96 ± 60
361.13 K, Liquid	596.12 ± 60
361.73 K, Liquid	596.19 ± 60
362.33 K, Liquid	596.29 ± 60
362.93 K, Liquid	596.51 ± 60
363.53 K, Liquid	596.79 ± 60
364.13 K, Liquid	597.06 ± 60
364.73 K, Liquid	597.35 ± 60
365.33 K, Liquid	597.68 ± 60
365.93 K, Liquid	598.06 ± 60
366.53 K, Liquid	598.36 ± 60
367.13 K, Liquid	598.59 ± 60
367.73 K, Liquid	598.82 ± 60
368.33 K, Liquid	599 ± 60
368.93 K, Liquid	599.12 ± 61
369.53 K, Liquid	599.24 ± 61
370.13 K, Liquid	599.38 ± 61
